In one series the test system is FLT3. The note with it: cited from earlier work.
The next series in a line: clinical. The note with it: human, plasma, intravenous, cycle 1, day 1; for AUC(0-t): AUC (0–24 h); for concentration at 24 h: C24 h.
[1] abbreviates: Concomitant midostaurin n = 13, cycle 1, day 1.
[2] abbreviates: Sequential midostaurin n = 13, cycle 1, day 1.
Where [3] appears, read: Mean ± SD, Concomitant midostaurin n = 13.
The mark [4] stands for this setting: Mean ± SD, Sequential midostaurin n = 13.
[5] abbreviates: Median, Concomitant midostaurin n = 13.
The mark [6] stands for this setting: Median, Sequential midostaurin n = 13.

Where two headings read alike, the source gives them in different places.

For `CN(C(=O)c1ccccc1)[C@@H]1C[C@H]2O[C@@](C)([C@@H]1O)n1c3ccccc3c3c4c(c5c6ccccc6n2c5c31)C(=O)NC4` [CGP62221], in the series with FLT3, the “Inhibition of FLT3 in vitro” value is listed as “capable of inhibiting FLT3 in vitro”.
For `Nc1ccn([C@@H]2O[C@H](CO)[C@@H](O)[C@@H]2O)c(=O)n1` [cytarabine], under “data not shown”, the “Pharmacokinetic interaction with midostaurin” value is given as “No interaction”.
As usually defined, the AUC(0-t) is exposure summed from dosing to a finite time, without extrapolation to infinity. A lower AUC(0-t) goes with low exposure. As a reminder, the Cmax is the peak of the concentration-time curve. As a reminder, the Tmax is the time from dosing to the highest level. As to `COc1cccc2c1C(=O)c1c(O)c3c(c(O)c1C2=O)C[C@@](O)(C(C)=O)C[C@@H]3O[C@H]1C[C@H](N)[C@H](O)[C@H](C)O1` [daunorubicin], under setting [1], the “CL, Mean ± SD” value came out at 269 ± 130 L/h/m^2; the “CL, Median” value is recorded as 283 L/h/m^2; the “Vz, Mean ± SD” value amounted to 717 ± 266 L/m^2; the “Vz, Median” value is on record as 694 L/m^2. Besides, under setting [2], the “C24 h, Mean ± SD” value was found to be 0 ± 0 ng/mL; the “CL, Mean ± SD” value is on record as 330 ± 226 L/h/m^2; the “CL, Median” value stood at 270 L/h/m^2; the “Vz, Mean ± SD” value was 946 ± 696 L/m^2. For the same compound, the “Vz, Median” value under setting [2] amounted to 775 L/m^2. Further, the “C24 h, Median” value (Sequential midostaurin n = 13, cycle 1, day 1, LLOQ is 5 ng/mL) was “LLOQ”. For the setting “midostaurin 50 mg twice daily”, the “Effect of midostaurin on clearance” value is given as “does not seem to be affected”. Also, for the setting “ratio, cycle 1, day 1”, the “C24 h, Concomitant/sequential midostaurin” value is reported as 17.4/LLOQ. Also, in “clinical” (setting [3]), the AUC(0-t) turned out to be 373 ng·h/mL, the concentration at 24 h stood at 17.4 ng/mL, the Cmax was found to be 98 ng/mL and the Tmax stood at 30 min. In the series “clinical” (setting [4]), the AUC(0-t) stood at 267 ng·h/mL, the peak level (Cmax) was 229 ng/mL and the Tmax was determined as 36 min. Further, in the series “clinical” (setting [5]), the AUC(0-t) was 189 ng·h/mL, the concentration at 24 h was determined as 17.4 ng/mL, the Cmax turned out to be 89 ng/mL and the time to peak (Tmax) amounted to 30 min. In “clinical” (setting [6]), the AUC(0-t) was 159 ng·h/mL, the Cmax is 76 ng/mL and the Tmax amounted to 30 min.

These data come from article PMC4118284 (Leukemia, 2012).
